Measured values published in ChEMBL document CHEMBL1201862, “PubChem BioAssay data set” (2004).
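In this assay, cells in 96-well plates receive the compound at five concentrations for 48 hours. Endpoints are linearly interpolated between the surrounding concentrations. GI50 marks 50% less growth.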 Active and inactive are the calls of the source. No stated cut-off is given here; in the data, active = GI50 up to about 1.1 µM and inactive = higher.

Assays:
Assay in all cases: NCI-60 cell line screen, 48 h
SF-268 = system: SF-268
MDA-N = system: MDA-N
MDA-MB-231 = system: MDA-MB-231
EKVX = system: EKVX
MOLT-4 = system: MOLT-4
HOP-62 = system: HOP-62
SW-620 = system: SW-620
T47D = system: T47D
HL-60 = system: HL-60
Hs-578T = system: Hs-578T
HT-29 = system: HT-29
UO-31 = system: UO-31
NCI-H460 = system: NCI-H460
CCRF-CEM = system: CCRF-CEM
SN12C = system: SN12C
A549 = system: A549
OVCAR-8 = system: OVCAR-8
Malme-3M = system: Malme-3M
SR = system: SR
LOX IMVI = system: LOX IMVI

**Q.** `COc1ccc(C(=O)C#Cc2cn(C3CC(O)C(CO)O3)c(=O)[nH]c2=O)cc1` (stereo unspecified) was tested. Which GI50 (SF-268) did it give?
**A.** 53 µM (inactive)

**Q.** What about the GI50 (MDA-N) of the same compound?
**A.** 60.3 µM (inactive)

**Q.** What about the GI50 (MDA-MB-231) of the same compound?
**A.** > 100 µM (inactive)

**Q.** And the GI50 (EKVX)?
**A.** > 100 µM (inactive)

**Q.** What about the GI50 (MOLT-4) of the same compound?
**A.** 39.4 µM (inactive)

**Q.** What about the GI50 (HOP-62) of the same compound?
**A.** > 100 µM (inactive)

**Q.** And the GI50 (SW-620)?
**A.** 43.1 µM (inactive)

**Q.** What about the GI50 (T47D) of the same compound?
**A.** 19.2 µM (inactive)

**Q.** And the GI50 (HL-60)?
**A.** > 10 µM (inactive)

**Q.** And the GI50 (Hs-578T)?
**A.** 30.6 µM (inactive)

**Q.** And the GI50 (HT-29)?
**A.** > 100 µM (inactive)

**Q.** What about the GI50 (UO-31) of the same compound?
**A.** > 100 µM (inactive)

**Q.** What about the GI50 (NCI-H460) of the same compound?
**A.** > 100 µM (inactive)

**Q.** And the GI50 (CCRF-CEM)?
**A.** > 10 µM (inactive)

**Q.** What about the GI50 (SN12C) of the same compound?
**A.** 28.7 µM (inactive)

**Q.** What about the GI50 (A549) of the same compound?
**A.** > 100 µM (inactive)

**Q.** What about the GI50 (OVCAR-8) of the same compound?
**A.** > 100 µM (inactive)

**Q.** And the GI50 (Malme-3M)?
**A.** 10.4 µM (inactive)

**Q.** Which GI50 (SF-268) does the source give for `CC(=O)OCC1OC(c2c(OC(C)=O)cc(C)c3c(=O)cc(/C(C(C)=O)=C(\C)O)oc23)C(OC(C)=O)C(OC(C)=O)C1OC(C)=O` (stereo unspecified) here?
**A.** 87.7 µM (inactive)

**Q.** What about the GI50 (MDA-N) of the same compound?
**A.** > 100 µM (inactive)

**Q.** What about the GI50 (MDA-MB-231) of the same compound?
**A.** > 100 µM (inactive)

**Q.** And the GI50 (EKVX)?
**A.** > 100 µM (inactive)

**Q.** What about the GI50 (MOLT-4) of the same compound?
**A.** > 100 µM (inactive)

**Q.** What about the GI50 (HOP-62) of the same compound?
**A.** > 100 µM (inactive)

**Q.** And the GI50 (SW-620)?
**A.** > 100 µM (inactive)

**Q.** What about the GI50 (T47D) of the same compound?
**A.** > 100 µM (inactive)

**Q.** And the GI50 (HL-60)?
**A.** > 100 µM (inactive)

**Q.** And the GI50 (SR)?
**A.** > 100 µM (inactive)

**Q.** What about the GI50 (Hs-578T) of the same compound?
**A.** 84.9 µM (inactive)

**Q.** And the GI50 (HT-29)?
**A.** > 100 µM (inactive)

**Q.** What about the GI50 (UO-31) of the same compound?
**A.** > 100 µM (inactive)

**Q.** What about the GI50 (NCI-H460) of the same compound?
**A.** > 100 µM (inactive)

**Q.** And the GI50 (CCRF-CEM)?
**A.** > 100 µM (inactive)

**Q.** And the GI50 (SN12C)?
**A.** > 100 µM (inactive)

**Q.** What about the GI50 (A549) of the same compound?
**A.** > 100 µM (inactive)

**Q.** What about the GI50 (OVCAR-8) of the same compound?
**A.** > 100 µM (inactive)

**Q.** And the GI50 (Malme-3M)?
**A.** > 100 µM (inactive)

**Q.** With `COc1ccc(C(=O)N(C(=S)OCCOc2ccccc2)c2ccccc2)cc1` as the compound, how does the GI50 (SF-268) read?
**A.** 44 µM (inactive)

**Q.** And the GI50 (MDA-N)?
**A.** 35.1 µM (inactive)

**Q.** And the GI50 (MDA-MB-231)?
**A.** 86.1 µM (inactive)

**Q.** And the GI50 (EKVX)?
**A.** 31.6 µM (inactive)

**Q.** And the GI50 (MOLT-4)?
**A.** 19.7 µM (inactive)

**Q.** And the GI50 (LOX IMVI)?
**A.** 52 µM (inactive)

**Q.** What about the GI50 (HOP-62) of the same compound?
**A.** 71.3 µM (inactive)

**Q.** And the GI50 (SW-620)?
**A.** 50 µM (inactive)

**Q.** And the GI50 (T47D)?
**A.** 19.9 µM (inactive)

**Q.** And the GI50 (HL-60)?
**A.** 20.2 µM (inactive)

**Q.** And the GI50 (Hs-578T)?
**A.** 65.2 µM (inactive)

**Q.** And the GI50 (HT-29)?
**A.** 40.4 µM (inactive)

**Q.** What about the GI50 (UO-31) of the same compound?
**A.** 0.0457 µM (active)

**Q.** What about the GI50 (NCI-H460) of the same compound?
**A.** 34.1 µM (inactive)

**Q.** What about the GI50 (CCRF-CEM) of the same compound?
**A.** 14.9 µM (inactive)

**Q.** And the GI50 (SN12C)?
**A.** 43.8 µM (inactive)

**Q.** What about the GI50 (A549) of the same compound?
**A.** 31.1 µM (inactive)

**Q.** And the GI50 (OVCAR-8)?
**A.** 52.2 µM (inactive)

**Q.** And the GI50 (Malme-3M)?
**A.** 28.4 µM (inactive)

**Q.** How did the GI50 (SF-268) turn out when `C(=C\c1ccccc1)/C=N/c1ccc2c(c1)Cc1ccccc1-2` was run?
**A.** 38.9 µM (inactive)

**Q.** And the GI50 (MDA-N)?
**A.** 44 µM (inactive)

**Q.** And the GI50 (MDA-MB-231)?
**A.** 65 µM (inactive)

**Q.** And the GI50 (EKVX)?
**A.** 49.1 µM (inactive)

**Q.** What about the GI50 (MOLT-4) of the same compound?
**A.** 31 µM (inactive)

**Q.** And the GI50 (LOX IMVI)?
**A.** 23.9 µM (inactive)

**Q.** What about the GI50 (HOP-62) of the same compound?
**A.** > 100 µM (inactive)

**Q.** And the GI50 (SW-620)?
**A.** 69 µM (inactive)

**Q.** What about the GI50 (T47D) of the same compound?
**A.** 76.7 µM (inactive)

**Q.** And the GI50 (SR)?
**A.** 24 µM (inactive)

**Q.** And the GI50 (Hs-578T)?
**A.** 50.8 µM (inactive)

**Q.** And the GI50 (HT-29)?
**A.** > 100 µM (inactive)

**Q.** And the GI50 (UO-31)?
**A.** > 100 µM (inactive)

**Q.** And the GI50 (NCI-H460)?
**A.** 58.1 µM (inactive)

**Q.** What about the GI50 (CCRF-CEM) of the same compound?
**A.** 14.7 µM (inactive)

**Q.** What about the GI50 (SN12C) of the same compound?
**A.** 41.1 µM (inactive)

**Q.** And the GI50 (A549)?
**A.** > 100 µM (inactive)

**Q.** What about the GI50 (OVCAR-8) of the same compound?
**A.** 57.9 µM (inactive)

**Q.** And the GI50 (Malme-3M)?
**A.** > 100 µM (inactive)

**Q.** `O=C(O)CCC/N=C(\C(=N\CCCC(=O)O)c1ccccc1)c1ccccc1` was tested. Which GI50 (SF-268) did it give?
**A.** > 100 µM (inactive)

**Q.** And the GI50 (MDA-N)?
**A.** > 100 µM (inactive)

**Q.** And the GI50 (MDA-MB-231)?
**A.** > 100 µM (inactive)

**Q.** What about the GI50 (EKVX) of the same compound?
**A.** > 100 µM (inactive)

**Q.** And the GI50 (MOLT-4)?
**A.** > 100 µM (inactive)

**Q.** What about the GI50 (LOX IMVI) of the same compound?
**A.** > 100 µM (inactive)

**Q.** And the GI50 (HOP-62)?
**A.** > 100 µM (inactive)

**Q.** What about the GI50 (SW-620) of the same compound?
**A.** > 100 µM (inactive)

**Q.** What about the GI50 (T47D) of the same compound?
**A.** > 100 µM (inactive)

**Q.** What about the GI50 (SR) of the same compound?
**A.** > 100 µM (inactive)

**Q.** And the GI50 (Hs-578T)?
**A.** > 100 µM (inactive)

**Q.** What about the GI50 (UO-31) of the same compound?
**A.** > 100 µM (inactive)

**Q.** And the GI50 (NCI-H460)?
**A.** > 100 µM (inactive)

**Q.** What about the GI50 (SN12C) of the same compound?
**A.** > 100 µM (inactive)

**Q.** What about the GI50 (A549) of the same compound?
**A.** > 100 µM (inactive)

**Q.** What about the GI50 (OVCAR-8) of the same compound?
**A.** > 100 µM (inactive)

**Q.** How did the GI50 (SF-268) turn out when `COc1ccc(Cc2c(N)[nH]c(=O)n(C)c2=O)cc1` was run?
**A.** 34.6 µM (inactive)

**Q.** What about the GI50 (MDA-N) of the same compound?
**A.** > 100 µM (inactive)

**Q.** What about the GI50 (MDA-MB-231) of the same compound?
**A.** 92.7 µM (inactive)

**Q.** And the GI50 (EKVX)?
**A.** 10.6 µM (inactive)

**Q.** What about the GI50 (LOX IMVI) of the same compound?
**A.** 56 µM (inactive)

**Q.** And the GI50 (HOP-62)?
**A.** 31.1 µM (inactive)

**Q.** And the GI50 (SW-620)?
**A.** > 100 µM (inactive)

**Q.** And the GI50 (T47D)?
**A.** > 100 µM (inactive)

**Q.** What about the GI50 (Hs-578T) of the same compound?
**A.** 45.1 µM (inactive)

**Q.** And the GI50 (HT-29)?
**A.** 47.5 µM (inactive)

**Q.** What about the GI50 (UO-31) of the same compound?
**A.** 5 µM (inactive)

**Q.** And the GI50 (NCI-H460)?
**A.** 72.1 µM (inactive)

**Q.** What about the GI50 (SN12C) of the same compound?
**A.** 42.8 µM (inactive)

**Q.** And the GI50 (A549)?
**A.** > 100 µM (inactive)

**Q.** And the GI50 (OVCAR-8)?
**A.** > 100 µM (inactive)

**Q.** What about the GI50 (Malme-3M) of the same compound?
**A.** > 100 µM (inactive)

**Q.** Which results are given for `O=C(O)C1=C/C(=C(/c2ccccc2)c2cc(C(=O)O)c(O)c3ccccc23)c2ccccc2C1=O`?
**A.** GI50 (SF-268): > 100 µM (inactive); GI50 (MDA-N): > 100 µM (inactive); GI50 (MDA-MB-231): > 100 µM (inactive); GI50 (EKVX): > 100 µM (inactive); GI50 (MOLT-4): > 100 µM (inactive); GI50 (HOP-62): > 100 µM (inactive); GI50 (SW-620): > 100 µM (inactive); GI50 (T47D): > 100 µM (inactive); GI50 (HL-60): < 0.01 µM (active); GI50 (SR): > 100 µM (inactive); GI50 (Hs-578T): > 100 µM (inactive); GI50 (HT-29): > 100 µM (inactive); GI50 (UO-31): > 100 µM (inactive); GI50 (NCI-H460): > 100 µM (inactive); GI50 (CCRF-CEM): < 0.01 µM (active); GI50 (SN12C): > 100 µM (inactive); GI50 (A549): > 100 µM (inactive); GI50 (OVCAR-8): > 100 µM (inactive); GI50 (Malme-3M): > 100 µM (inactive)
